The values below come from patent US8217068B2, “Compound with anesthetics activity, methods for its production and pharmaceutical compositions comprising the same” (Universidade Federal de Pernambuco—UFPE, priority 2007, dated 2012).

What all share (assay type): in vivo
The subject of data set [1] is male Swiss mice. Briefly: Hot Plate Test, analgesic activity (% AA) after i.p. administration. On the procedure:
The activity of several compounds with action in central nervous system as opioids, which the main drug is morphine, and the alpha-2 adrenoceptor agonist as clonidine have been identified by this method.
The analgesic activity of LPSF-PT-31, GIRSUPAN was investigated in male Swiss mice weighting 18-24 grams using the Hot Plate Test method (Brain Res. 1983, 245-252). The animals were positioned on a hot plate stabilized at 52° C. using the equipment Analgesic Meter-Letica LE 7406. When the pain threshold was achieved the animals raised and licked the front paw to cool down the temperature. The time between positioning the animals on the plate and lick the paw was the latency of the pain reaction. The maximal time (cut-off) allowed to the animals staying on the hot plate was three times the latency time measured on the control. The cut-off was very important to avoid skin damage of the paw.
The analgesic effect of the tested compounds was converted to a unit denominated analgesic activity (% AA) (Brain Res. 1983, 245-252) calculated by equation % AA=((post-drug latency)−(control latency))/((cut off)−(control latency))×100. The experimental protocol used to test the analgesic effect of the compound LPSF-PT-31, GIRSUPAN, consisted to measure the AA in the control condition (before drug administration) and after (i.p.) intraperitoneal administration of increasing dose (1, 5, 10 and 15 mg·kg^−1).
In another experimental group, dimethyl sulfoxide used as vehicle for diluting LPSF-PT-31, GIRSUPAN, was i.p. administered at same volume used for the tested drug. The AA was measured until complete recovery to the control condition.
A general note: Hot-plate and tail-flick tests time the reaction to a heat stimulus.

Data set [2] relates to male Swiss mice. Briefly: Isobolographic analysis of the combination with morphine (analgesic effect, DE50). To be noted: i.p., combination of fractions of DE50 of each drug, FIG. 3.
Procedure: First, we determined the dose of morphine that cause 50% of maximal analgesic effect (DE50) after administration (i.p.) in incremental doses. […] Fraction of association of DE50 of each drug was administrated and the DE50 of combination was determined. A isobolographic analysis (FIG. 3) using the DE50 of each drug and of the combination was performed using a computer program (Life Sci 1989 45: 947-961) to determine the type of interaction.
Data set [3] relates to Wistar male rats. Briefly: Hot Plate analgesic effect after intrathecal administration. The procedure: Stimulation of alpha-2 adrenoceptors distributed at spinal cord cause analgesia. […] Thus, the analgesic activity of LPSF-PT-31, GIRSUPAN was investigated after intrathecal administration. Wistar male rats weighting 240-280 grams were positioned in abdominal under light general anesthesia with sevoflurane. Puncture between L4-L5 was performed with low diameter needle (29 G) and LPSF-PT-31, GIRSUPAN was injected at dose of 20, 40, 80 or 160 μg diluted in constant volume of 50 μl. Sevoflurane was the elected anesthetic due to low blood solubility causing a fast induction and recovery of anesthesia.
Thus, the animals were completely recovered few minutes after punction and injection LPSF-PT-31, GIRSUPAN and AA activity started to measure from 10 minutes. […] The maximal analgesic effect measured by Hot Plate was ca. 40% sustained by 180 minutes. This intensity of analgesic effect is observed with alpha-2 adrenoceptor agonist as clonidine.

Data set [4] concerns male Swiss mice. Nature of the data set: Sedative activity by measuring motor activity (Motor Activity Monitor). The procedure:
The sedative activity of 3-(2-chloro-6-fluoro-benzyl)-imidazolidine-2,4-dione LPSF-PT-31, GIRSUPAN was investigated in male Swiss mice weighting 18-24 grams by measuring the motor activity (Motor Activity Monitor, Letica LE 8811). In this equipment the animals are positioned in an open square field and a set of invisible beans cross the field. The interruption of the beans was used to quantify the motor activity. After a period of adaptation the motor activity of the animals was measured during 20 min.
Decrease of motor activity represents reduction of brain activity and this observation is useful to investigate the effect of drug with sedative, hipnotic, anxyolitic and general anesthetic properties (Bioorg. Med. Chem. 2006, 14:632-640). Thus, measurement of motor activity is not a method to identify a specific group of pharmacological class.

Data set [5] relates to Wistar male rats. Briefly: Activity on cardiovascular system: blood pressure and EKG recording in awake animals. Particulars: 10 mg/kg single dose through external jugular vein. The procedure:
Hypotension and reduction of heart rate are the major concern of alpha-2 adrenoceptor agonist as clonidine. These effects are justified by decreasing the central nervous system sympathetic outflow due to activation of alpha-2 adrenoceptor. With the aim to investigate if LPSF-PT-31, GIRSUPAN could cross the brain barrier and reduces the hemodynamic response, Wistar male rats weighing 230-280 grams were prepared for blood pressure and electrocardiogram (EKG) recording. The heart rate was estimated by analysis of EKG. LPSF-PT-31, GIRSUPAN (10 mg/kg) was injected trough external jugular vein in a single dose in awaked animals. The blood pressure and the heart rate were not changed showing that LPSF-PT-31, GIRSUPAN is a stable compound for the cardiovascular system differently that occurs with clonidine.

Consider `O=C1CNC(=O)N1Cc1c(F)cccc1Cl` [LPSF-PT-31, 3-(2-chloro-6-fluoro-benzyl)-imidazolidine-2,4-dione], for which the “maximal effect (% AA)” value with male Swiss mice [1] (15 mg·kg^−1 i.p.) is recorded as “about 80 % AA”. In the data set with male Swiss mice [1] (i.p.), the “duration of plateau of analgesic effect” value is 40 to 50 min, the “time of peak of analgesic effect” value is on record as “approximately 20 min” and the “time to complete recovery from the analgesic effect” value was 100 to 120 min. Also, the “effect on % AA (analgesic activity)” value in the data set on male Swiss mice [1] (i.p. 1, 5, 10 and 15 mg·kg^−1, hot plate 52° C., FIG. 1) is recorded as “increased the % AA in a dose-dependent manner”. Further, the “reversal of analgesic effect by naloxone (antagonist of opioid receptor)” value in the data set on male Swiss mice [1] (naloxone 1 mg·kg^−1 i.p.) is “partially reversed”. In addition, the “reversal of analgesic effect by flumazenil (antagonist of benzodiazepine receptor)” value with male Swiss mice [1] (previous treatment with flumazenil 0.3 mg·kg^−1) is listed as “not reversed”. Besides, the “reversal of analgesic effect by yohimbine (antagonist of alpha-2 adrenoceptor)” value with male Swiss mice [1] (yohimbine 5 mg·kg^−1 i.p., compound 10 mg·kg^−1, FIG. 2) is listed as “completely reversed”. Moreover, in the data set with male Swiss mice [2], the “type of interaction with morphine (isobolographic analysis of DE50)” value is recorded as “strong synergic interaction”. Also, in the data set on Wistar male rats [3] (intrathecal), the “duration of maximal analgesic effect” value was determined as 180 min and the “maximal analgesic effect measured by Hot Plate” value is “ca. 40%”. In addition, the “effect on pain reaction after intrathecal administration” value in the data set on Wistar male rats [3] (intrathecal 20, 40, 80 or 160 μg in 50 μl, FIG. 4) is reported as “reduces the pain reaction after intrathecal administration in a dose-dependent manner”. Also, in the data set on male Swiss mice [4] (10 mg·kg^−1, motor activity measured during 20 min, FIG. 5), the “reduction of motor activity” value is recorded as “ca. 80%”. The “intensity of motor activity reduction versus positive control” value with male Swiss mice [4] (10 mg·kg^−1, positive control midazolam, FIG. 5) was “comparable to midazolam”. The “reversal of decrease of motor activity by yohimbine” value in the data set on male Swiss mice [4] (yohimbine) is “completely reversed”. In the data set with Wistar male rats [5], the blood pressure entry was “not changed” and the “heart rate (estimated by analysis of EKG)” value is reported as “not changed”.
